Laboratory results published in publication PMC8454699, “Structure and function of aerotolerant, multiple-turnover THI4 thiazole synthases” (Biochemical Journal, 2021).

Molecular target: T1, Thermovibrio ammonificans THI4 (TaTHI4) (Thermovibrio ammonificans, UniProt E8T346)
T1 construct: N-terminal His6 tag (pBAD24, recoded gene), E. coli BL21(DE3); homooctamer, four monomers per asymmetric unit; anaerobically reconstituted with Fe(II), NAD+ and glycine
Test: X-ray crystallography, […] A
Type: binding
Conditions: reaction intermediate formed from NAD+ and glycine; Fe(II)-reconstituted, anaerobic; pH 7.5, 22 °C; active site, pincer-type ligand of Fe(II)

CC(N=CC(=O)O)C(=O)C(O)COP(=O)(O)OP(=O)(O)OC[C@H]1O[C@@H](n2cnc3c(N)ncnc32)[C@H](O)[C@@H]1O (stereo partly shown) [glycine imine intermediate]
X-ray crystallography, 2.3 A: Clear density for the TaTHI4 treated with NAD and glycine shows the expected glycine imine
